molecular target: human TRPA1 (Homo sapiens (Human), UniProt O75762); experiment: In vitro inhibition of human TRPA1, whole cell patch configuration; assay type: cell-based; conditions: current activation 10 μM AITC, tested concentrations 320 pM to 3.2 μM, read-out: hTRPA1 IC50
Procedure, shortened: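 Compound antagonism measured from voltage ramps (±100 or ±80 mV, 400 ms, every 4 s from −40 mV), analysed at −80 and 80 mV, or at constant −60 mV. HEPES-buffered NaCl bath, pH 7.4, EGTA or 2 mM Ca2+; temperature set by perfusion, within ±2° C; no junction-potential correction.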

Sequence of human TRPA1 (O75762 whole entry, the tested form may be a part): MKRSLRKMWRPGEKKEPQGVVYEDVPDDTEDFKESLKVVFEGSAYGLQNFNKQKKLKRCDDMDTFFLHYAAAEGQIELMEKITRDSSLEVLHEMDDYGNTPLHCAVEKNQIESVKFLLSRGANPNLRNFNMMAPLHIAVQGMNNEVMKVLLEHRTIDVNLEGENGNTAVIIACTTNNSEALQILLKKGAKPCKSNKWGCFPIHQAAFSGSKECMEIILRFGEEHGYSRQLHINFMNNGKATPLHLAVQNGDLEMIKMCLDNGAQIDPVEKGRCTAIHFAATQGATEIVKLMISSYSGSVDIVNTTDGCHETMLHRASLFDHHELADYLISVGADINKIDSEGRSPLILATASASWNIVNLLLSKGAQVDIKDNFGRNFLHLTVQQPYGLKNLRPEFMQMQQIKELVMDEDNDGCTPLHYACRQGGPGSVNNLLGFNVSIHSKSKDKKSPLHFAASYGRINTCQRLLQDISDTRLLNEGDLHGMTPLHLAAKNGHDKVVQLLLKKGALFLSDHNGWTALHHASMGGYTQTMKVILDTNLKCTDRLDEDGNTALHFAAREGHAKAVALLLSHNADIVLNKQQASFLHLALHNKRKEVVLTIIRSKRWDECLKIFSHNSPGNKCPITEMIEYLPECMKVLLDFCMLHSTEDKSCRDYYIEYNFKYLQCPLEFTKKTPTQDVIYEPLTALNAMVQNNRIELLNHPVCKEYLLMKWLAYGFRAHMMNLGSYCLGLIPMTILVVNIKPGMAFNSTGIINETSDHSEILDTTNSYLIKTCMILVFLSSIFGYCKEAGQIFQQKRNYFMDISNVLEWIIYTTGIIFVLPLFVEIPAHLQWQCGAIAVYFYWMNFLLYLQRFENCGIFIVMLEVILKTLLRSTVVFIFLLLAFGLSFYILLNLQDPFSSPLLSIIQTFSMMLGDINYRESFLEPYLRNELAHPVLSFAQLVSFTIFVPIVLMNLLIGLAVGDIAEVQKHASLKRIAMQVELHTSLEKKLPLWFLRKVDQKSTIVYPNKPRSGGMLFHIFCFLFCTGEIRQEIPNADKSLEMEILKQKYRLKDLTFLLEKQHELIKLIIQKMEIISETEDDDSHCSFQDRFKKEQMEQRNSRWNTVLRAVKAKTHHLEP

**Q.** For `CC#CCn1c(=O)c2c(ncn2[C@@H](C)C(=O)Nc2cccc(-c3cnc(N4CC5C(C4)C5(F)F)nc3)n2)n(C)c1=O` (stereo partly drawn) [Compound 169, (2S)-2-(1-(but-2-yn-1-yl)-3-methyl-2,6-dioxo-2,3-dihydro-1H-purin-7(6H)-yl)-N-(6-(2-(6,6-difluoro-3-azabicyclo[3.1.0]hexan-3-yl)pyrimidin-5-yl)pyridin-2-yl)propanamide], which IC50 is on record?
**A.** Its IC50 is 10 nM.

**Q.** How did the IC50 turn out when `Cc1nc(Cn2c(=O)c3c(ncn3[C@@H](C)C(=O)Nc3cncc(-c4cnc(C)c(C(F)(F)F)c4)n3)n(C)c2=O)no1` [Compound 170, (S)-2-(3-methyl-1-((5-methyl-1,2,4-oxadiazol-3-yl)methyl)-2,6-dioxo-2,3-dihydro-1H-purin-7(6H)-yl)-N-(6-(6-methyl-5-(trifluoromethyl)pyridin-3-yl)pyrazin-2-yl)propanamide] was run?
**A.** The IC50 was 27 nM.

**Q.** How did the IC50 turn out when `Cc1nc(Cn2c(=O)c3c(ncn3[C@@H](C)C(=O)Nc3cccc(-c4cnc(C(F)(F)F)nc4)n3)n(C)c2=O)no1` [Compound 171, (S)-2-(3-methyl-1-((5-methyl-1,2,4-oxadiazol-3-yl)methyl)-2,6-dioxo-2,3-dihydro-1H-purin-7(6H)-yl)-N-(6-(2-(trifluoromethyl)pyrimidin-5-yl)pyridin-2-yl)propanamide] was run?
**A.** The IC50 was 23 nM.

**Q.** With `CC#CCn1c(=O)c2c(ncn2[C@@H](C)C(=O)Nc2ccnc(-c3cnc(N4CC5CC5C4)nc3)n2)n(C)c1=O` (stereo partly drawn) [Compound 173, (2S)—N-(2′-(3-azabicyclo[3.1.0]hexan-3-yl)-[2,5′-bipyrimidin]-4-yl)-2-(1-(but-2-yn-1-yl)-3-methyl-2,6-dioxo-2,3-dihydro-1H-purin-7(6H)-yl)propanamide] as the molecule, how does the IC50 read?
**A.** Its IC50 is 6 nM.

**Q.** With `Cc1nc2c(c(=O)n(Cc3ccccn3)c(=O)n2C)n1CC(=O)Nc1cccc(-c2ccc(Cl)cc2)n1` [Compound 174, N-(6-(4-chlorophenyl)pyridin-2-yl)-2-(3,8-dimethyl-2,6-dioxo-1-(pyridin-2-ylmethyl)-2,3-dihydro-1H-purin-7(6H)-yl)acetamide] as the molecule, how does the IC50 read?
**A.** The IC50 was 24 nM.

**Q.** With `Cc1nc2c(c(=O)n(Cc3ccccn3)c(=O)n2C)n1CC(=O)Nc1cccc(-c2ccc(F)c(F)c2)n1` [Compound 175, N-(6-(3,4-difluorophenyl)pyridin-2-yl)-2-(3,8-dimethyl-2,6-dioxo-1-(pyridin-2-ylmethyl)-2,3-dihydro-1H-purin-7(6H)-yl)acetamide] as the molecule, how does the IC50 read?
**A.** Its IC50 is 54 nM.

**Q.** `Cc1nc2c(c(=O)n(Cc3ccccn3)c(=O)n2C)n1CC(=O)Nc1cccc(-c2cnc(C(F)(F)F)nc2)n1` [Compound 177, 2-(3,8-dimethyl-2,6-dioxo-1-(pyridin-2-ylmethyl)-2,3-dihydro-1H-purin-7(6H)-yl)-N-(6-(2-(trifluoromethyl)pyrimidin-5-yl)pyridin-2-yl)acetamide] was tested. Which IC50 did it give?
**A.** The IC50 was 42 nM.

**Q.** For `Cn1c(=O)n(Cc2ccccn2)c(=O)c2c1ncn2CC(=O)Nc1csc(-c2ccc(F)c(F)c2)n1` [Compound 178, N-(2-(3,4-difluorophenyl)thiazol-4-yl)-2-(3-methyl-2,6-dioxo-1-(pyridin-2-ylmethyl)-2,3-dihydro-1H-purin-7(6H)-yl)acetamide], which IC50 is on record?
**A.** Its IC50 is 14 nM.

**Q.** With `CC(=O)Cn1c(=O)c2c(ncn2CC(=O)Nc2cccc(-c3ccc(Cl)cc3)n2)n(C)c1=O` [Compound 181, N-(6-(4-chlorophenyl)pyridin-2-yl)-2-(3-methyl-2,6-dioxo-1-(2-oxopropyl)-1,2,3,6-tetrahydropurin-7-yl)acetamide] as the molecule, how does the IC50 read?
**A.** Its IC50 is 19 nM.

**Q.** `CC(=O)Cn1c(=O)c2c(ncn2CC(=O)Nc2cccc(-c3ccc(F)c(F)c3)n2)n(C)c1=O` [Compound 182, N-(6-(3,4-difluorophenyl)pyridin-2-yl)-2-(3-methyl-2,6-dioxo-1-(2-oxopropyl)-1,2,3,6-tetrahydropurin-7-yl)acetamide] was tested. Which IC50 did it give?
**A.** The IC50 was 42 nM.

**Q.** For `CC(=O)Cn1c(=O)c2c(ncn2CC(=O)Nc2cccc(-c3cnc(N4CCC[C@H]4C(F)(F)F)nc3)n2)n(C)c1=O` [Compound 183, (S)-2-(3-methyl-2,6-dioxo-1-(2-oxopropyl)-1,2,3,6-tetrahydropurin-7-yl)-N-(6-(2-(2-(trifluoromethyl)pyrrolidin-1-yl)pyrimidin-5-yl)pyridin-2-yl)acetamide], which IC50 is on record?
**A.** Its IC50 is 3 nM.

**Q.** For `CC(O)Cn1c(=O)c2c(ncn2CC(=O)Nc2cccc(-c3cnc(N4CCC[C@H]4C(F)(F)F)nc3)n2)n(C)c1=O` (stereo partly drawn) [Compound 184, 2-(1-(2-hydroxypropyl)-3-methyl-2,6-dioxo-1,2,3,6-tetrahydropurin-7-yl)-N-(6-(2-((S)-2-(trifluoromethyl)pyrrolidin-1-yl)pyrimidin-5-yl)pyridin-2-yl)acetamide], which IC50 is on record?
**A.** Its IC50 is 310 nM.

**Q.** `CC(=O)Cn1c(=O)c2c(ncn2CC(=O)Nc2cccc(-c3cnc(C(F)(F)F)nc3)n2)n(C)c1=O` [Compound 185, 2-(3-methyl-2,6-dioxo-1-(2-oxopropyl)-2,3-dihydro-1H-purin-7(6H)-yl)-N-(6-(2-(trifluoromethyl)pyrimidin-5-yl)pyridin-2-yl)acetamide] was tested. Which IC50 did it give?
**A.** The IC50 was 45 nM.

**Q.** For `Cn1c(=O)n(Cc2ccccn2)c(=O)c2c1ncn2CC(=O)Nc1cccc(-c2cnc(C(F)(F)F)nc2)n1` [Compound 186, 2-(3-methyl-2,6-dioxo-1-(pyridin-2-ylmethyl)-2,3-dihydro-1H-purin-7(6H)-yl)-N-(6-(2-(trifluoromethyl)pyrimidin-5-yl)pyridin-2-yl)acetamide], which IC50 is on record?
**A.** The IC50 was 74 nM.

**Q.** For `Cn1c(=O)n(Cc2ccccn2)c(=O)c2c1ncn2CC(=O)Nc1cccc(-c2ccc(F)c(F)c2)n1` [Compound 187, N-(6-(3,4-difluorophenyl)pyridin-2-yl)-2-(3-methyl-2,6-dioxo-1-(pyridin-2-ylmethyl)-2,3-dihydro-1H-purin-7(6H)-yl)acetamide], which IC50 is on record?
**A.** The IC50 was 74 nM.

**Q.** With `Cn1c(=O)n(Cc2ccccn2)c(=O)c2c1ncn2CC(=O)Nc1cccc(-c2ccc(Cl)cc2)n1` [Compound 188, N-(6-(4-chlorophenyl)pyridin-2-yl)-2-(3-methyl-2,6-dioxo-1-(pyridin-2-ylmethyl)-2,3-dihydro-1H-purin-7(6H)-yl)acetamide] as the molecule, how does the IC50 read?
**A.** The IC50 was 33 nM.

**Q.** Which IC50 does the source give for `Cn1c(=O)n(Cc2ccccn2)c(=O)c2c1ncn2CC(=O)Nc1cccc(-c2cnc(N3CCC[C@H]3C(F)(F)F)nc2)n1` [Compound 189, (S)-2-(3-methyl-2,6-dioxo-1-(pyridin-2-ylmethyl)-2,3-dihydro-1H-purin-7(6H)-yl)-N-(6-(2-(2-(trifluoromethyl)pyrrolidin-1-yl)pyrimidin-5-yl)pyridin-2-yl)acetamide] here?
**A.** Its IC50 is 2 nM.

**Q.** For `Cn1c(=O)n(Cc2ccccn2)c(=O)c2c1ncn2CC(=O)Nc1csc(-c2ccc(Cl)cc2)n1` [Compound 190], which IC50 is on record?
**A.** The IC50 was 17 nM.

**Q.** `Cn1c(=O)n(Cc2ccccn2)c(=O)c2c1ncn2CC(=O)Nc1csc(-c2cnc(C(F)(F)F)nc2)n1` [Compound 191, 2-(3-methyl-2,6-dioxo-1-(pyridin-2-ylmethyl)-2,3-dihydro-1H-purin-7(6H)-yl)-N-(2-(2-(trifluoromethyl)pyrimidin-5-yl)thiazol-4-yl)acetamide] was tested. Which IC50 did it give?
**A.** Its IC50 is 51 nM.

**Q.** For `CC(=O)Cn1c(=O)c2c(nc(C)n2CC(=O)Nc2cccc(-c3ccc(Cl)cc3)n2)n(C)c1=O` [Compound 192, N-(6-(4-chlorophenyl)pyridin-2-yl)-2-(3,8-dimethyl-2,6-dioxo-1-(2-oxopropyl)-1,2,3,6-tetrahydropurin-7-yl)acetamide], which IC50 is on record?
**A.** Its IC50 is 33 nM.

**Q.** How did the IC50 turn out when `CC(=O)Cn1c(=O)c2c(nc(C)n2CC(=O)Nc2cccc(-c3ccc(F)c(F)c3)n2)n(C)c1=O` [Compound 193, N-(6-(3,4-difluorophenyl)pyridin-2-yl)-2-(3,8-dimethyl-2,6-dioxo-1-(2-oxopropyl)-1,2,3,6-tetrahydropurin-7-yl)acetamide] was run?
**A.** The IC50 was 45 nM.

**Q.** How did the IC50 turn out when `CC(=O)Cn1c(=O)c2c(nc(C)n2CC(=O)Nc2cccc(-c3cnc(C(F)(F)F)nc3)n2)n(C)c1=O` [Compound 194, 2-(3,8-dimethyl-2,6-dioxo-1-(2-oxopropyl)-1,2,3,6-tetrahydropurin-7-yl)-N-(6-(2-(trifluo-romethyl)pyrimidin-5-yl)pyridin-2-yl)acetamide] was run?
**A.** Its IC50 is 62 nM.

**Q.** With `CC(=O)Cn1c(=O)c2c(nc(C)n2CC(=O)Nc2cccc(-c3cnc(N4CCC[C@H]4C(F)(F)F)nc3)n2)n(C)c1=O` [Compound 195] as the molecule, how does the IC50 read?
**A.** Its IC50 is 3 nM.

**Q.** For `Cc1cc(Cn2c(=O)c3c(ncn3CC(=O)Nc3cccc(N4CCC(F)(F)CC4)n3)n(C)c2=O)no1` [Compound 196, N-(6-(4,4-difluoropiperidin-1-yl)pyridin-2-yl)-2-(3-methyl-1-((5-methylisoxazol-3-yl)methyl)-2,6-dioxo-2,3-dihydro-1H-purin-7(6H)-yl)acetamide], which IC50 is on record?
**A.** Its IC50 is 122 nM.

**Q.** How did the IC50 turn out when `Cc1cc(Cn2c(=O)c3c(ncn3CC(=O)Nc3cccc(N4CC(F)(F)C4)n3)n(C)c2=O)no1` [Compound 197, N-(6-(3,3-difluoroazetidin-1-yl)pyridin-2-yl)-2-(3-methyl-1-((5-methylisoxazol-3-yl)methyl)-2,6-dioxo-2,3-dihydro-1H-purin-7(6H)-yl)acetamide] was run?
**A.** Its IC50 is 294 nM.

**Q.** How did the IC50 turn out when `Cc1cc(Cn2c(=O)c3c(ncn3CC(=O)Nc3ccc4ccccc4n3)n(C)c2=O)no1` [Compound 199, 2-(3-Methyl-1-((5-methylisoxazol-3-yl)methyl)-2,6-dioxo-2,3-dihydro-1H-purin-7(6H)-yl)-N-(quinolin-2-yl)acetamide] was run?
**A.** Its IC50 is 404 nM.

**Q.** With `Cc1cc(Cn2c(=O)c3c(ncn3CC(=O)Nc3ccc(Br)c(C(F)(F)F)n3)n(C)c2=O)no1` [Compound 200, N-(5-bromo-6-(trifluoromethyl)pyridin-2-yl)-2-(3-methyl-1-((5-methyl-isoxazol-3-yl)methyl)-2,6-dioxo-2,3-dihydro-1H-purin-7(6H)-yl)acetamide] as the molecule, how does the IC50 read?
**A.** Its IC50 is 34 nM.

**Q.** For `Cc1cc(Cn2c(=O)c3c(ncn3CC(=O)Nc3ccc(C#N)c(C(F)(F)F)n3)n(C)c2=O)no1` [Compound 201, N-(5-cyano-6-(trifluoromethyl)pyridin-2-yl)-2-(3-methyl-1-((5-methylisoxazol-3-yl)methyl)-2,6-dioxo-2,3-dihydro-1H-purin-7(6H)-yl)acetamide], which IC50 is on record?
**A.** The IC50 was 309 nM.

Reference: patent publication US10221177B2 (HYDRA BIOSCIENCES, INC., priority 2014, dated 2019)
